Laboratory results published in ChEMBL document CHEMBL1201862, “PubChem BioAssay data set” (2004).
Activity calls are given as the source filed them.

Key:
[1] = viability of uninfected HEp-2 cells – cell-based, HTS, cytotoxicity control for RSV inhibitor project, dose response (AID 2410); format: functional; conditions: human respiratory syncytial virus
[2] = target: T1, Voltage-gated N-type calcium channel alpha-1B subunit/Amyloid beta A4 precursor protein-binding family A member 1 (Homo sapiens, UniProt Q00975+Q02410); format: protein assay
T1 sequence (Q00975 whole entry): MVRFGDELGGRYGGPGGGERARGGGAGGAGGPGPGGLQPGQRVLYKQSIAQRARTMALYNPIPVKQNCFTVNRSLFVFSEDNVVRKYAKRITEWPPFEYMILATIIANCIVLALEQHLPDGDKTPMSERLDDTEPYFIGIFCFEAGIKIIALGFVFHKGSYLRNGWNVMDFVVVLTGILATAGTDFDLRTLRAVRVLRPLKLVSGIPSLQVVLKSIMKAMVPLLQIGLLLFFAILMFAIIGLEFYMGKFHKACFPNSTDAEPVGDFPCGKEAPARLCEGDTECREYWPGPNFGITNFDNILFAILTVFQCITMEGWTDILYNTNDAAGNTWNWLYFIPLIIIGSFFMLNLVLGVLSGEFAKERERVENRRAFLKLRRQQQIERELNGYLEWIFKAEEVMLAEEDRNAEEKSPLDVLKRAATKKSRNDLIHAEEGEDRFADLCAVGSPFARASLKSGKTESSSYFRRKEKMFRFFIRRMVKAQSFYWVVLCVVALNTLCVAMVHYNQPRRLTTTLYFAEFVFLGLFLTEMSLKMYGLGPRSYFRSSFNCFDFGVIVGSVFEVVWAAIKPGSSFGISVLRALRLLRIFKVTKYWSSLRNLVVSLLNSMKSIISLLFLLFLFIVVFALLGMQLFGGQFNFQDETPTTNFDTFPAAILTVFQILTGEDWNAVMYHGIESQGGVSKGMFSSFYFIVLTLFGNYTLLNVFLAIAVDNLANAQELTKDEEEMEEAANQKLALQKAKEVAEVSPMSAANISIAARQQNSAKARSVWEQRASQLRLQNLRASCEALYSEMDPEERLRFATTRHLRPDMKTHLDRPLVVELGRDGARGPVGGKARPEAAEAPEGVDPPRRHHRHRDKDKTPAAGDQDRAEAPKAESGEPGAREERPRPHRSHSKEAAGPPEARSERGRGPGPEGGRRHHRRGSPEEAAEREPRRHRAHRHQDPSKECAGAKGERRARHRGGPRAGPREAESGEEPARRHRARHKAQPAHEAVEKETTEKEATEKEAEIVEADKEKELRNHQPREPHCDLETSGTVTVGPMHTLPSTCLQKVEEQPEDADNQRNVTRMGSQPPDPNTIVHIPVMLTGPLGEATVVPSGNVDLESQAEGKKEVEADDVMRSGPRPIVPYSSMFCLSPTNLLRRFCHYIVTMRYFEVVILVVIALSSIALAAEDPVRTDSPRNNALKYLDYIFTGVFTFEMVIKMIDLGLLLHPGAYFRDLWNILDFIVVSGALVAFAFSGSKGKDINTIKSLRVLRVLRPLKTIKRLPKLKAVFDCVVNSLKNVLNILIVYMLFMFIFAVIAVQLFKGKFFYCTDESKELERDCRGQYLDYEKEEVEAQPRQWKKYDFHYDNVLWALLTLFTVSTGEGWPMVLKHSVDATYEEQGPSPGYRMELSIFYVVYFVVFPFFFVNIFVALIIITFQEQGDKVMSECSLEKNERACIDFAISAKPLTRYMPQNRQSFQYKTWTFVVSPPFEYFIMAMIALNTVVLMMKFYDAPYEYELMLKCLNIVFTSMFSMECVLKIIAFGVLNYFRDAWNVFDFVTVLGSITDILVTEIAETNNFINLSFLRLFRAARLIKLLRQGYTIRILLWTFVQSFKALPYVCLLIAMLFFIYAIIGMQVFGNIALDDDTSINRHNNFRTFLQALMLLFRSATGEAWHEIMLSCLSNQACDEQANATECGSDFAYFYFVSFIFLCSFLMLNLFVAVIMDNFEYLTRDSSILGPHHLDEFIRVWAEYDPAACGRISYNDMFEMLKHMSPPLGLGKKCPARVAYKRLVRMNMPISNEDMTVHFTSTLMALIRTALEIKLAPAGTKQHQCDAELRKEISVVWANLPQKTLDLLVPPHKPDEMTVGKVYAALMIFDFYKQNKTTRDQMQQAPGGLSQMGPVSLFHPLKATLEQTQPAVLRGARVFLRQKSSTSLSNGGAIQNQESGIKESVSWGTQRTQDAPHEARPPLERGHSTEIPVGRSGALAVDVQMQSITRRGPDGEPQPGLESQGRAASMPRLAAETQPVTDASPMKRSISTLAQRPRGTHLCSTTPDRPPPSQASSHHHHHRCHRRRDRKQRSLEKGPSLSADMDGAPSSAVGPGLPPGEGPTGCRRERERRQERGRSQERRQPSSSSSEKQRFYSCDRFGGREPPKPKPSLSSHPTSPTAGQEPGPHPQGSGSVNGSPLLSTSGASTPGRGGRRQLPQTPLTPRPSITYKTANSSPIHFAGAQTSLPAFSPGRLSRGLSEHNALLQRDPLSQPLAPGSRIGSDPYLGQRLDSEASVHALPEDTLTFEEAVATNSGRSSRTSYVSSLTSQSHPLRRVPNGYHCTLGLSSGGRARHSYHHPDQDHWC
T1 sequence (Q02410 whole entry): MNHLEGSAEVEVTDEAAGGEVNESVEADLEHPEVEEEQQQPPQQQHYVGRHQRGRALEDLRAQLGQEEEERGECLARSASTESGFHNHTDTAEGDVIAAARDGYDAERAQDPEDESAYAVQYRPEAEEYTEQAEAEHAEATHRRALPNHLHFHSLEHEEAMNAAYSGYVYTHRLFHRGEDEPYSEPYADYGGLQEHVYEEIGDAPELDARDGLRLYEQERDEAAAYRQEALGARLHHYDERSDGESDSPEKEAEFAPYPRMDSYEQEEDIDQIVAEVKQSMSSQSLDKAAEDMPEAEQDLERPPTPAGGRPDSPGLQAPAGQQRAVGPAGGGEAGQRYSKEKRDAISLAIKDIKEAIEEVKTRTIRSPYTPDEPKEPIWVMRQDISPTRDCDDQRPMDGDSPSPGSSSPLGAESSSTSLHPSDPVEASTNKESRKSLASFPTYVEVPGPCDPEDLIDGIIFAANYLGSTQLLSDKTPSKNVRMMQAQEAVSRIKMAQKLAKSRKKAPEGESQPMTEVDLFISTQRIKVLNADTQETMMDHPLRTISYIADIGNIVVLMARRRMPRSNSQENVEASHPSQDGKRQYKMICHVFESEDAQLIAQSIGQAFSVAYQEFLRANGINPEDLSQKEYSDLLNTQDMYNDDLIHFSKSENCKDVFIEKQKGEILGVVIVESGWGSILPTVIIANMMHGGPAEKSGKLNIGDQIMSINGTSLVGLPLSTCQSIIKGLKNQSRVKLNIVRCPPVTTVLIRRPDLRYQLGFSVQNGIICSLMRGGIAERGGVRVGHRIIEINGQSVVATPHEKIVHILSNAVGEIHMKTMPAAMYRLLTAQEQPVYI

[3] = target: T1, Voltage-gated N-type calcium channel alpha-1B subunit/Amyloid beta A4 precursor protein-binding family A member 1; format: protein assay; remark: listed apart in the source
[4] = target: T2, Calpain-2 catalytic subunit (Sus scrofa, UniProt P43367); assay: m-calpain protease blockers, concentration series – biochemical, fluorogenic peptide substrate, dose response (AID 1420); format: functional
T2 sequence (P43367 whole entry): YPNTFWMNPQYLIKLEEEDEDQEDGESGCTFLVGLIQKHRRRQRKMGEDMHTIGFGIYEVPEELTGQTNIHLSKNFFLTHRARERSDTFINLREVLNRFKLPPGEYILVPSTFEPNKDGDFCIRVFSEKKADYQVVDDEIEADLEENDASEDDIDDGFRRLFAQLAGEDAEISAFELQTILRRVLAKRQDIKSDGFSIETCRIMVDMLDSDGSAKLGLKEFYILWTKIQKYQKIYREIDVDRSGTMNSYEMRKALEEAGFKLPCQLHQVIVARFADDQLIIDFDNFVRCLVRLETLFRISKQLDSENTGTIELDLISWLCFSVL

Cytochrome P450 3A4 = Cytochrome P450 3A4 (Homo sapiens, UniProt P08684);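 also: CYP3A4 tested as one member of a cytochrome P450 panel screen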
Chain of Cytochrome P450 3A4 (P08684 whole entry): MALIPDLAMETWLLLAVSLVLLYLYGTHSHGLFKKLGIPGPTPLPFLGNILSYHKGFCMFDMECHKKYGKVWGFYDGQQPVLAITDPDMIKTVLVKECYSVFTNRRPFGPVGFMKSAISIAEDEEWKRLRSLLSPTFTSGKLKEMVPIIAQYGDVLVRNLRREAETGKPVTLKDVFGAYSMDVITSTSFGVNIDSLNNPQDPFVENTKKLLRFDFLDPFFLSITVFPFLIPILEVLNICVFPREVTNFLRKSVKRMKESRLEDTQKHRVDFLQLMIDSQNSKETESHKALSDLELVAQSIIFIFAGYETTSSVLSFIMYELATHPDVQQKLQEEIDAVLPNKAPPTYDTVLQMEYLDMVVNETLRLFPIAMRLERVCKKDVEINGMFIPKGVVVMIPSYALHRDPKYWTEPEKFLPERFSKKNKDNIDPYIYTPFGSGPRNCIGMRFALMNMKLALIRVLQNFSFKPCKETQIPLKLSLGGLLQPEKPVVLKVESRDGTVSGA

Streptokinase A = target: T3, Streptokinase A (Streptococcus pyogenes serotype M1, UniProt P10520); assay: viability-normalized secreted streptokinase activity reduction – plasminogen activation absorbance, OD405, dose response (AID 1914); format: functional, Streptococcus pyogenes M1 GAS;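 also: secreted streptokinase activity via plasminogen activation per viability signal from cell pellet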
T3 sequence (P10520 whole entry): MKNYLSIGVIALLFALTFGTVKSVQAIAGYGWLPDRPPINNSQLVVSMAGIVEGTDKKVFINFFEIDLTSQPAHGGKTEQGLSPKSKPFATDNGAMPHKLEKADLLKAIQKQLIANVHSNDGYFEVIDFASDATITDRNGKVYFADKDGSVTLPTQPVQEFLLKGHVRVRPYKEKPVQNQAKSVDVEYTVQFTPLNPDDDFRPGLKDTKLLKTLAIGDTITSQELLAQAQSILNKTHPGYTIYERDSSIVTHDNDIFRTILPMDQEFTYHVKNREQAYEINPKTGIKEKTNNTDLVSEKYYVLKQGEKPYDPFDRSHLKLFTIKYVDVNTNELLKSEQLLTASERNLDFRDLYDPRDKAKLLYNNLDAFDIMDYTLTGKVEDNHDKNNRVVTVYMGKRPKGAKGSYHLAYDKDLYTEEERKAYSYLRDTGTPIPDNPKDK

[5] = viability loss in THP-1 monocytes – THP-1 cells, cytotoxicity control for Vif-APOBEC3G degradation inhibitor project, dose response (AID 1117359); format: functional; conditions: THP-1
[6] = system: Streptococcus sp. 'group A'; assay: Streptococcus pyogenes SK(-)GAS viability under kanamycin – luminescence, BacTiterGlo, confirmation, counter-screen for streptokinase expression inhibitor project, dose response (AID 1900); format: functional, organism-based
Streptococcus = assay: GAS UMAA2166 growth inhibition – luminescence, BacTiterGlo, counter-screen for streptokinase expression inhibitor project, dose response (AID 1915); format: functional, organism-based;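 also: potency for reduction of bacterial viability or growth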
Fatty acid synthase [7] = target: T4, Fatty acid synthase (Homo sapiens, UniProt P49327); assay: inhibition of human FAS-TE enzyme activity – biochemical, kinetic fluorescence intensity, dose response (AID 624326); format: functional;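 also: rate of fluorescence rise from hydrolysis of a fluorogenic O-methyl fluorescein ester substrate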
Fatty acid synthase [8] = target: T4, Fatty acid synthase; assay: inhibition of human FAS-TE enzyme activity – biochemical, endpoint fluorescence intensity, uHTS hits, dose response (AID 624327); format: functional;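 also: fluorescence from hydrolysis of an O-methyl fluorescein acyl ester substrate by the enzyme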
Large T antigen = Large T antigen (Simian virus 40, UniProt P03070); format: functional, Betapolyomavirus macacae;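 also: Confirmatory-stage PubChem screen for compounds that inhibit SV40 T antigen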
[9] = target: T5, Microphthalmia-associated transcription factor (Homo sapiens, UniProt O75030); assay: reducers of TRPM1 reporter luminescence, concentration series – cell-based, SK-MEL-5, cherry-picked, set 3, MITF inhibitor project, dose response (AID 493073); format: functional;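 also: SK-MEL-5 melanoma cells with luciferase driven by the MITF target TRPM1 promoter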
T5 sequence (O75030 whole entry): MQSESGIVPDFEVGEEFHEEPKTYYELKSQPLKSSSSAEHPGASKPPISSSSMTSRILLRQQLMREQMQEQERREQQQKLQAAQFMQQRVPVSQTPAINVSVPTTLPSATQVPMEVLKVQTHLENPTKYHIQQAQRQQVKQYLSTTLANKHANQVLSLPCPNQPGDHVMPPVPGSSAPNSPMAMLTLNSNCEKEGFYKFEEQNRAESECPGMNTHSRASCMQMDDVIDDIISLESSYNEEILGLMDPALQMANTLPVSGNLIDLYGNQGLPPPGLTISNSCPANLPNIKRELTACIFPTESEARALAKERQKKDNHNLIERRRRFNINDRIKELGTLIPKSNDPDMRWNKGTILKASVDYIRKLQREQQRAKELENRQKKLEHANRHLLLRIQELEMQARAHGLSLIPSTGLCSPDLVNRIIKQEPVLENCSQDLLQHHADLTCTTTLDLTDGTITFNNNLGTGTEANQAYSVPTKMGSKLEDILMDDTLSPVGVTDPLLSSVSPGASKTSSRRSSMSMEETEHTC

[10] = target: T6, Endoribonuclease toxin MazF (Escherichia coli K-12, UniProt P0AE70); assay: activation of MazEF endoribonuclease cleavage – biochemical, fluorescence, single-stranded RNA substrate, uHTS hits, dose response (AID 588481); format: functional
T6 sequence (P0AE70 whole entry): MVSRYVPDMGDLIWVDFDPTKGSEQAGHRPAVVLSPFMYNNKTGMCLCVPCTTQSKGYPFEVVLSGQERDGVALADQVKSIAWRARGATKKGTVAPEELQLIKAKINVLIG

[11] = target: T6, Endoribonuclease toxin MazF; assay: substrate-only fluorescence increase artefacts – biochemical, single-stranded RNase substrate, counter-screen for MazEF activator project, dose response (AID 588502); format: functional
[12] = target: Glyceraldehyde-3-phosphate dehydrogenase (Homo sapiens, UniProt P04406)
Chain of Glyceraldehyde-3-phosphate dehydrogenase (P04406 whole entry): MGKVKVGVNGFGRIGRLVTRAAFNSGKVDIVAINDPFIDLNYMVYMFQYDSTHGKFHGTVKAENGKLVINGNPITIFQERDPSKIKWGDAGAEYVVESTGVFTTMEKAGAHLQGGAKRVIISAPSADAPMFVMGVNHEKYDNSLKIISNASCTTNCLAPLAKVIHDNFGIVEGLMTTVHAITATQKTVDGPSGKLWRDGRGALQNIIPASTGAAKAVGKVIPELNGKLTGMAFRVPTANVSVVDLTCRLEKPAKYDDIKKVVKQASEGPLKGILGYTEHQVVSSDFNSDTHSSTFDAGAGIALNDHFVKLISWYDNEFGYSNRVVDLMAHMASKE

[13] = target: T7, Alkaline phosphatase, tissue-nonspecific isozyme (Homo sapiens, UniProt P05186); assay: potency against alkaline phosphatase TNAP – biochemical, luminescent, dose response, SAR follow-up (AID 1056)
T7 sequence (P05186 whole entry): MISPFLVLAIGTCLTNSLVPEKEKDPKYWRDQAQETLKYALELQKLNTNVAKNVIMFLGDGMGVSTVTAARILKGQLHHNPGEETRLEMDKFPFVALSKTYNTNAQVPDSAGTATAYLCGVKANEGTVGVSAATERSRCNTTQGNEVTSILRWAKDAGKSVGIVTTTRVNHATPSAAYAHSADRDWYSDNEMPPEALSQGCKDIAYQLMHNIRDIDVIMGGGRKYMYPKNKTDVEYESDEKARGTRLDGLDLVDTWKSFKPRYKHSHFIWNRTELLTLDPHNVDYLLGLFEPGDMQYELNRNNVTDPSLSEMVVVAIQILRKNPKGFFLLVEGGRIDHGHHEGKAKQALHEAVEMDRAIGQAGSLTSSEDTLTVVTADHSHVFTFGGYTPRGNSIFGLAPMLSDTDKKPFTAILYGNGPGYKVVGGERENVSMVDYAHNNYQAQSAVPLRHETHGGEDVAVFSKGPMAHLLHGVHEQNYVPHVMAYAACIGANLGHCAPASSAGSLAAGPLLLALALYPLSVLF

[14] = HIV-1 AD8 envelope cell-cell fusion blockers – cherry-pick, dose response (AID 652062); format: functional, cell-based;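 also: luciferase signal from cell-cell fusion driven by HIV-1 clade B AD8 Env; potency is for inhibitors of fusion seen as a drop in luminescence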
[15] = blockers of HIV-1 envelope-mediated cell-cell fusion – cherry-pick, dose response (AID 652057); format: functional, cell-based
[16] = blockers of HIV-1 ZM109 envelope-driven cell-cell fusion – HeLa effector, CEM target cells, luciferase, cherry-pick, dose response (AID 652058); format: functional, cell-based;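 also: luciferase signal from HIV-1 Env mediated cell-cell fusion of effector and target cells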
[17] = off-target signal loss in HeLa-CEM21 co-culture – HeLa F-luc CTL cells, cherry-picked, counter-screen for HIV-1 Env fusion inhibitor project, dose response (AID 652040); format: functional, cell-based;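 also: potency for signal decrease marking cytotoxic or nonspecific inhibition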
Vero = assay: viability of Vero cells under compound – cytotoxicity control for flavivirus capping enzyme inhibitors (AID 588742); format: functional; conditions: Chlorocebus sabaeus
Genome polyprotein = Genome polyprotein (dengue virus type 2, UniProt P29990); assay: flavivirus cap methylation enzyme inhibition – biochemical, confirmation dose response, primary screen (AID 588689); format: functional
Chain of Genome polyprotein (P29990 2492-3391 limits assumed): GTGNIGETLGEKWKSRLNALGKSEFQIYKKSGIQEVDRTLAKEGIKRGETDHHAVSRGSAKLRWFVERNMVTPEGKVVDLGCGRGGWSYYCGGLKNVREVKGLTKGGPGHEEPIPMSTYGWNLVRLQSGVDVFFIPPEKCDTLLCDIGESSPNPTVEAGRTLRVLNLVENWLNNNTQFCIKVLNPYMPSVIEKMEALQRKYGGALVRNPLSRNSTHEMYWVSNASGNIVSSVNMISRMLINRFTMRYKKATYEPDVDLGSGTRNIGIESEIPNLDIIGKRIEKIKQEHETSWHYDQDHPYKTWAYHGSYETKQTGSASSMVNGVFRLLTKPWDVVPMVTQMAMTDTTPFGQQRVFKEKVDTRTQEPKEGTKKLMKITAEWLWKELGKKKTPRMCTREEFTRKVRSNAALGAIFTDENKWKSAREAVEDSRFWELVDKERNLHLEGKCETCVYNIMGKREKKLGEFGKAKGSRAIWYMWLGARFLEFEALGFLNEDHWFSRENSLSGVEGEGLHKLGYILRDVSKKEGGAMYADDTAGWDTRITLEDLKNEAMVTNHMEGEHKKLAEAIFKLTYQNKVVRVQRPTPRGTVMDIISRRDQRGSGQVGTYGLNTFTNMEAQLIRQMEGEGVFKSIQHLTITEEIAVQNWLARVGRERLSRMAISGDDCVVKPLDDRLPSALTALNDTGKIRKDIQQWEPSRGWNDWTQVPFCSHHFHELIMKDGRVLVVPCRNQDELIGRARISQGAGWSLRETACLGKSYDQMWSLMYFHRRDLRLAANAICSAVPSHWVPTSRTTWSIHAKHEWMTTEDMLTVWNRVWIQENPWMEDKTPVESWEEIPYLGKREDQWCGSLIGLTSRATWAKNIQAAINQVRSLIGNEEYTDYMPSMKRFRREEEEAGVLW

[18] = target: Heat shock protein HSP 90-alpha (Homo sapiens, UniProt P07900); format: functional, organism-based
INS1 = assay: INS-1E survival protection against cytokine death – cell-based, luminescence, retest, dose response (AID 449756); format: functional; conditions: Rattus norvegicus;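 also: cell death triggered by IL-1 beta plus TNF-alpha plus IFN-gamma mixture; protective hits raise ATP signal compared with cytokine alone wells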
Cytochrome P450 2C19 = Cytochrome P450 2C19 (Homo sapiens, UniProt P33261); assay: Cytochrome panel assay with activity outcomes. Panel member name: p450-cyp2c19 Compounds with AC50 equal or less than 10 uM are considered active; format: functional; conditions: read-out: AC50
[19] = toxicity toward HepG2 liver cells – cell-based, plate reader, cherry-pick, antagonist series, cytotoxicity control, dose response (AID 743416); format: functional
[20] = blockade of melanocortin 4 receptor signaling – cell-based, plate reader, cherry pick, counter-screen for LGR2 antagonist project, dose response (AID 743444); format: functional;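 also: transfected HEK 293 cells stimulated with alpha-MSH peptide; potency of inhibitors of the alpha-MSH evoked signal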
[21] = A549 cell cytotoxicity, dose response, cytotoxicity control, plate reader, cherry-pick, antagonist series (AID 743412); format: functional, cell-based
[22] = viability loss in HEK293 cells – cell-based, plate reader, cherry-picked samples, cytotoxicity control, dose response (AID 743446); format: functional
[23] = blockers of bursicon-stimulated LGR2 cAMP reporter – cell-based, HEK293, CRE-luciferase reporter, cherry pick, set 2, dose response (AID 743343); format: functional;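 also: transfected cells were stimulated with diluted bursicon conditioned medium after compound addition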

O=S(=O)(/C=C/c1ccccc1)N1CCC(c2nc(O)c3nnn(Cc4ccc(F)cc4)c3n2)CC1
IC50 (cells): 12 µM (active)
CC50 [1]: 19.1 µM (active)

Cc1c(Cc2ccccc2)sc(NC(=O)c2ccco2)c1C(N)=O
IC50 [2]: > 50 µM (inactive)
IC50 [3]: 9.09 µM (active)

Cc1ccc2c(CC(=O)Nc3cccc(S(=O)(=O)N4CCOCC4)c3)coc2c1
IC50 [4]: 25.9 µM (not active)

O=C(Oc1ccccc1)N1CCC2(CCN(Cc3nccs3)CC2)CC1
AC50 (Cytochrome P450 3A4): inconclusive

C=CCN1C(=O)NC(=O)/C(=C(/CC)Nc2ccc(N(C)C)cc2)C1=O
EC50 (Streptokinase A): > 150 µM (not active)
CC50 [5]: > 40 µM (active)
EC50 [6]: 5.65 µM (active)
EC50 (Streptococcus): 9.73 µM (active)

Cc1nc(SCC(=O)Nc2ccccc2)c2oc3ccccc3c2n1
IC50 [4]: > 50 µM (not active)

Cc1ccc([N+](=O)[O-])cc1NC(=O)C(Sc1ccccc1)c1ccccc1 (centres undefined)
IC50 (Fatty acid synthase [7]): 1.73 µM (active)
IC50 (Fatty acid synthase [8]): 2.24 µM (active)
IC50 [4]: > 50 µM (not active)

CCN1C(=O)/C(=C\c2ccc([N+](=O)[O-])s2)C(=O)NC1=S
CC50 [5]: > 40 µM (active)
IC50 (Large T antigen): 91.6 µM (active)

COc1cccc(-c2csc3ncnc(Sc4nnnn4C)c23)c1
AC50 [9]: 25 µM (active)

C=CCOc1ccc(CNC(C)(C)CO)cc1OC.Cl
AC50 (Cytochrome P450 3A4): inconclusive

O=c1oc(/C=C/c2ccccc2)nc2sc3c(c12)CCC3
IC50 (cells): 39.6 µM (active)
CC50 [1]: 28.4 µM (active)
EC50 [10]: > 99 µM (inactive)
EC50 [11]: > 99 µM (inactive)

O=C1c2c(Cl)c(Cl)c(Cl)c(Cl)c2C(=O)N1c1nnc[nH]1
IC50 [12]: 5.3 µM (active)
IC50 [13]: > 100 µM (inactive)

O=C(NCc1ccco1)c1ccc(Cn2c(=O)c3sccc3n(Cc3cccc(F)c3)c2=O)cc1
IC50 (cells): 5.66 µM (active)
AC50 [14]: 2.36 µM (active)
AC50 [15]: < 0.26 µM (active)
CC50 [1]: > 12.5 µM (active)
AC50 [16]: 0.58 µM (active)
AC50 [17]: 0.348 µM (active)

O=C(c1ccco1)N1CCN(C(=O)C2CCCc3c2[nH]c2ccc(Cl)cc32)CC1 (centres undefined)
IC50 (cells): 16 µM (active)
CC50 [1]: 16.2 µM (active)

CCOc1ccc(-n2c(=S)sc3c(O)nc(SCC(=O)C(C)(C)C)nc32)cc1
CC50 (Vero): > 40 µM (active)
IC50 (Genome polyprotein): 54.2 µM (active)

O=C(/C=C/c1cccc([N+](=O)[O-])c1)c1ccc([N+](=O)[O-])o1
EC50 (Streptokinase A): > 150 µM (not active)
AC50 [18]: 0.557 µM (active)
AC50 (INS1): 2.18 µM (active)
EC50 [6]: 2.33 µM (active)
CC50 (Vero): 30.7 µM (active)
EC50 (Streptococcus): 8.2 µM (active)

O=C(c1ccco1)N1CCC2(CC1)CN(c1ncccn1)C2
AC50 (Cytochrome P450 2C19): 25.1 µM (inconclusive)
AC50 (Cytochrome P450 3A4): inconclusive

O=C1C(NS(=O)(=O)c2cccs2)=C(N2CCN(c3cccc(Cl)c3)CC2)C(=O)c2ccccc21
CC50 (Vero): > 40 µM (active)

COc1ccc(-c2cc(C(=O)N/N=C/c3ccc4c(c3)OCO4)c3ccccc3n2)c(OC)c1
IC50 (cells): 27.9 µM (active)
CC50 [1]: 44.4 µM (active)

CC(=O)[C@H]1CC[C@H]2[C@@H]3C=CC4=CC(=O)CC[C@@]4(C)[C@H]3CC[C@]12C
AC50 (Cytochrome P450 3A4): inconclusive

COC(=O)c1cc(-c2ccc([N+](=O)[O-])cc2)[nH]n1
IC50 [12]: > 100 µM (not active)
IC50 [13]: > 100 µM (inactive)

Cc1ccc(-c2cc3onc(-c4ccccc4)c3c(=O)n2C)cc1
AC50 [19]: 27.6 µM (active)
AC50 [20]: 3.13 µM (active)
AC50 [21]: > 52 µM (inactive)
AC50 [9]: 9.76 µM (active)
AC50 [22]: 43.6 µM (active)
AC50 [23]: 1.67 µM (active)
